For data set [1], the system named is Staphylococcus aureus. Put plainly: Antimicrobial activity against Staphylococcus aureus DSM 346 assessed as inhibition of microbial growth incubated overnight by serial dilution method. It counts as functional.
Another data set relates to KB 3-1. Description: Cytotoxicity against human KB-3-1 cells assessed as inhibition of cell growth incubated for 5 days by MTT assay. The format is toxicity, cell-based. The settings on record: kb 3-1, 120 h, time 5 day. (Tetrazolium assays rely on reduction of a dye to a coloured formazan, in cell work by metabolically active cells.)
A further data set concerns Escherichia coli. Description: Antimicrobial activity against Escherichia coli DSM 1116 assessed as inhibition of microbial growth incubated overnight by serial dilution method. The format is functional, organism-based.
The test system of the next data set is Bacillus subtilis. Description: Antimicrobial activity against Bacillus subtilis DSM 10 assessed as inhibition of microbial growth incubated overnight by serial dilution method. The format is functional.
In data set [2] the test system is Schizosaccharomyces pombe. Description: Antimicrobial activity against Schizosaccharomyces pombe DSM 70572 assessed as inhibition of microbial growth incubated overnight by serial dilution method. The format is functional.
Data set [3] concerns Mycolicibacterium smegmatis. Description: Antimicrobial activity against Mycobacterium smegmatis ATCC 700084 assessed as inhibition of microbial growth incubated overnight by serial dilution method. It counts as functional.
The next data set has as its system Candida albicans. Put plainly: Antimicrobial activity against Candida albicans DSM 1665 assessed as inhibition of microbial growth incubated overnight by serial dilution method. It counts as functional.
In a further data set the test system is Mucor hiemalis. Description: Antimicrobial activity against Mucor hiemalis DSM 2656 assessed as inhibition of microbial growth incubated overnight by serial dilution method. The format is functional.
A further data set relates to Wickerhamomyces anomalus. Description: Antimicrobial activity against Wickerhamomyces anomalus DSM 6766 assessed as inhibition of microbial growth incubated overnight by serial dilution method. It counts as functional, organism-based.
The next data set concerns Pseudomonas aeruginosa. Put plainly: Antimicrobial activity against Pseudomonas aeruginosa PA14 assessed as inhibition of microbial growth incubated overnight by serial dilution method. The format is functional, organism-based.
Data set [4] has as its system Chromobacterium violaceum. Description: Antimicrobial activity against Chromobacterium violaceum DSM 30191 assessed as inhibition of microbial growth incubated overnight by serial dilution method. The format is functional, organism-based.
The next data set relates to L929. Put plainly: Cytotoxicity against mouse L929 cells assessed as inhibition of cell growth incubated for 5 days by MTT assay. The settings on record: l929, 120 h, time 5 day. It counts as toxicity, cell-based.
The subject of the next data set is Rhodotorula glutinis. Description: Antimicrobial activity against Rhodotorula glutinis DSM 10134 assessed as inhibition of microbial growth incubated overnight by serial dilution method. The format is functional, organism-based.
Data set [5] concerns Staphylococcus aureus. Put plainly: Antibiofilm activity in Staphylococcus aureus DSM1104 assessed as disruption of preformed biofilm at 3.9 to 250 ug/ml incubated for 18 hrs by crystal violet staining based assay. The format is functional, organism-based. Particulars: dose 3.9-250 µg/ml.
Data set [6] concerns Staphylococcus aureus. Put plainly: Antibiofilm activity in Staphylococcus aureus DSM1104 assessed as disruption of preformed biofilm at 3.9 ug/ml incubated for 18 hrs by crystal violet staining based assay relative to control. The format is functional. The settings on record: dose 3.9 µg/ml.
Data set [7] concerns Staphylococcus aureus. Description: Antibiofilm activity in Staphylococcus aureus DSM1104 assessed as disruption of preformed biofilm at 7.8 to 250 ug/ml incubated for 18 hrs by crystal violet staining based assay relative to control. Particulars: dose 7.8-250 µg/ml, at 7.8 to 250 µg/mL. It counts as functional.
The test system of data set [8] is Staphylococcus aureus. Description: Antimicrobial activity against Staphylococcus aureus DSM 346 assessed as inhibition of microbial growth at 3.9 to 7.8 ug/ml measured for 10 hrs. It counts as functional, organism-based. Particulars: DSM346, dose 3.9-7.8 µg/ml.
For data set [9], the system named is Staphylococcus aureus. Put plainly: Synergistic antimicrobial activity against Staphylococcus aureus DSM 1104 planktonic cells assessed as fold increase in gentamicin potency at 3.9 ug/ml by checkerboard assay relative to control. The format is functional. The settings on record: dose 3.9 µg/ml.
In data set [10] the test system is Staphylococcus aureus. Put plainly: Synergistic antimicrobial activity against Staphylococcus aureus DSM 1104 planktonic cells assessed as fractional inhibitory concentration index at 3.9 ug/ml in presence of vancomycin by checkerboard assay. It counts as functional. Particulars: dose 3.9 µg/ml.
The test system of data set [11] is Staphylococcus aureus. Put plainly: Synergistic antimicrobial activity against Staphylococcus aureus DSM 1104 planktonic cells assessed as vancomycin MIC at 3.9 ug/ml by checkerboard assay. It counts as functional. Particulars: dose 3.9 µg/ml.
In data set [12] the test system is Staphylococcus aureus. Put plainly: Synergistic antimicrobial activity against Staphylococcus aureus DSM 1104 planktonic cells assessed as gentamicin MIC at 3.9 ug/ml by checkerboard assay. Particulars: dose 3.9 µg/ml. The format is functional.
The test system of data set [13] is Staphylococcus aureus. Put plainly: Antibiofilm activity in Staphylococcus aureus DSM1104 assessed as disruption of preformed biofilm at […] to […] ug/ml incubated for 18 hrs by crystal violet staining based assay relative to control. The format is functional. The settings on record: dose lower […] microg/ml, dose upper 250 µg/ml.
For data set [14], the system named is Staphylococcus aureus. Description: Synergistic antimicrobial activity against Staphylococcus aureus DSM 1104 planktonic cells assessed as inhibition of preformed biofilm by measuring fold increase in gentamicin potency at 3.9 to 7.8 ug/ml measured at 24 to 48 hrs by CFU counting assay relative to control. It counts as functional. Particulars: dose 3.9-7.8 µg/ml; time 24-48 hrs.

Data set [15] has as its system Staphylococcus aureus. Put plainly: Antimicrobial activity against Staphylococcus aureus DSM 1104 assessed as disruption of preformed biofilm by measuring reduction in metabolic activity at 3.9 ug/ml incubated for 24 hrs by XTT assay. The format is functional, organism-based. The settings on record: dose 3.9 µg/ml.
Data set [16] has as its system Staphylococcus aureus. Put plainly: Synergistic antimicrobial activity against Staphylococcus aureus DSM 1104 planktonic cells assessed as fractional inhibitory concentration index at 3.9 ug/ml in presence of gentamicin by checkerboard assay. It counts as functional. The settings on record: dose 3.9 µg/ml.
Data set [17] relates to Staphylococcus aureus. Put plainly: Antimicrobial activity against Staphylococcus aureus DSM 1104 assessed as disruption of preformed biofilm by measuring reduction in metabolic activity at 2 to 7.8 ug/ml measured every 90 mins for 10 hrs by absorbance based analysis. It counts as functional, organism-based. Particulars: dose 2-7.8 µg/ml.
The test system of data set [18] is Staphylococcus aureus. Description: Synergistic antimicrobial activity against Staphylococcus aureus DSM 1104 planktonic cells assessed as inhibition of preformed biofilm by measuring fold increase in vancomycin potency at 3.9 to 7.8 ug/ml measured at 24 to 48 hrs by CFU counting assay relative to control. The settings on record: dose 3.9-7.8 µg/ml; time 24-48 hrs. It counts as functional.

The test system of data set [19] is Staphylococcus aureus. Put plainly: Antimicrobial activity against Staphylococcus aureus DSM 1104 assessed as inhibition of microbial growth incubated overnight by serial dilution method. The settings on record: DSM1104. It counts as functional.
Data set [20] concerns Staphylococcus aureus. Description: Antibiofilm activity in Staphylococcus aureus DSM1104 assessed as disruption of preformed biofilm. It counts as functional, organism-based.
Data set [21] deals with Staphylococcus aureus. Put plainly: Antibiofilm activity in Staphylococcus aureus DSM1104 assessed as disruption of preformed biofilm at 31.3 ug/ml incubated for 18 hrs by crystal violet staining based assay. The format is functional, organism-based. Particulars: dose 31.3 µg/ml.

The source made the active and inactive calls.

Experimental findings from ChEMBL document CHEMBL5584316, “Arcopilins: A New Family of Staphylococcus aureus Biofilm Disruptors from the Soil Fungus Arcopilus navicularis” (J Med Chem, 2024) are described below.

Take `C[C@@H](C[C@H](C)C(=O)C1=C(O)/C(=C/c2ccccc2)NC1=O)C[C@](C)(O)[C@@H](O)CO`: the result (in the data set on Staphylococcus aureus [1]; in the data set with Escherichia coli; with Bacillus subtilis; in data set [2]; in [3]; with Candida albicans) was inactive. Besides, the result (with Mucor hiemalis; in the data set on Wickerhamomyces anomalus; in the data set on Pseudomonas aeruginosa; in data set [4]; in the data set with Rhodotorula glutinis) was inactive. The Activity entry in the data set with KB 3-1 and in the data set on L929 was “Non-Toxic” each time.

For the compound `CC[C@H](C)[C@@H]1O[C@H](c2c(O)c(-c3ccccc3)cn(O)c2=O)[C@@H](C)C[C@@H]1C`, the outcome (in the data set with Escherichia coli; in data set [2]; in data set [3]; in the data set on Candida albicans; in the data set on Mucor hiemalis; in the data set with Wickerhamomyces anomalus) was inactive. Moreover, the result (in the data set on Pseudomonas aeruginosa; in the data set on Staphylococcus aureus [5]; in data set [4]; in the data set with Rhodotorula glutinis) was inactive.

As to `C[C@H](C[C@@H](C)[C@H](C)OC=O)C[C@H](C)C(=O)C1=C(O)/C(=C/c2ccccc2)NC1=O`, the outcome (in the data set on Escherichia coli; in [2]; in data set [3]; with Candida albicans; in the data set with Wickerhamomyces anomalus; in the data set on Pseudomonas aeruginosa) was inactive. The result (in data set [4]; with Rhodotorula glutinis) was inactive. The values for the Activity in the data set on Staphylococcus aureus [6] and in the data set on Staphylococcus aureus [7] were 35% and 50%, respectively.

The term MIC denotes the smallest concentration in the dilution series that meets the test's criterion for growth inhibition. `CC(=O)[C@H](C)C[C@@H](C)C[C@H](C)C(=O)C1=C(O)/C(=C/c2ccccc2)NC1=O`: the result in the data set with Staphylococcus aureus [8], in the data set with Staphylococcus aureus [15] and in the data set on Staphylococcus aureus [17] was Active. For the same compound, the results for the “fold change (FC)” value with Staphylococcus aureus [9], in the data set on Staphylococcus aureus [14] and in the data set with Staphylococcus aureus [18] were 115, 3 and 3, respectively. Further, the result (with Escherichia coli; in [3]; in the data set with Wickerhamomyces anomalus; with Pseudomonas aeruginosa; in [4]; in the data set on Rhodotorula glutinis) was inactive. Also, the figures for the “fractional inhibitory concentration index (FICI)” value in the data set with Staphylococcus aureus [10] and in the data set on Staphylococcus aureus [16] were 0.158 and 0.126, respectively. Moreover, the MIC amounted to 0.065 µg/mL with Staphylococcus aureus [11] and 0.13 µg/mL in the data set with Staphylococcus aureus [12]. Besides, the Activity was ~50% in the data set with Staphylococcus aureus [13] and 35% with Staphylococcus aureus [6].

With GENTAMICIN, the MIC in the data set with Staphylococcus aureus [1] came out at 0.4 µg/mL; in the data set on Escherichia coli, 1.7 µg/mL; in the data set with Staphylococcus aureus [19], 15.7 µg/mL; in the data set on Pseudomonas aeruginosa, 0.21 µg/mL; in [4], 0.42 µg/mL.

In the case of `CCC(/C=C(C)/C=C/C(=O)c1c(O)c(-c2ccc(O)cc2)cn(O)c1=O)CO` (centres undefined), in the data set with Staphylococcus aureus [20], the result was inactive.

For the compound `C[C@@H](C[C@H](C)C(=O)C1=C(O)/C(=C/c2ccccc2)NC1=O)C[C@](C)(O)C(=O)CO`, the outcome (in the data set with Staphylococcus aureus [1]; with Escherichia coli; with Bacillus subtilis; in data set [2]; in data set [3]; in the data set with Candida albicans) was inactive. Moreover, the result (in the data set on Mucor hiemalis; with Wickerhamomyces anomalus; with Pseudomonas aeruginosa; in data set [4]; in the data set on Rhodotorula glutinis) was inactive. Further, the Activity entry with KB 3-1 and in the data set with L929 was “Non-Toxic” throughout.

For the compound `CC[C@H](C)C[C@@H](C)C[C@H](C)C(=O)C1=C(O)/C(=C/c2ccccc2)NC1=O`, the result (in the data set with Staphylococcus aureus [1]; with Escherichia coli; in data set [2]; with Candida albicans; in the data set with Wickerhamomyces anomalus; in the data set on Pseudomonas aeruginosa) was inactive. Also, the outcome (in data set [4]; in the data set with Rhodotorula glutinis) was inactive. For the same compound, the result with Staphylococcus aureus [21] was Active.

Take `C[C@H](C[C@@H](C)[C@H](C)O)C[C@H](C)C(=O)C1=C(O)/C(=C/c2ccccc2)NC1=O`: the Activity entry in the data set with KB 3-1 and in the data set on L929 was “Non-Toxic” each time. Besides, the result (in the data set on Escherichia coli; in [2]; in data set [3]; in the data set on Candida albicans; in the data set on Mucor hiemalis; in the data set with Wickerhamomyces anomalus) was inactive. The result (in the data set with Pseudomonas aeruginosa; in [4]; with Rhodotorula glutinis) was inactive.

NYSTATIN: the minimum inhibitory concentration (MIC) in data set [2] came out at 4.2 µg/mL; in the data set on Mucor hiemalis, 8.3 µg/mL; in the data set on Wickerhamomyces anomalus, 8.3 µg/mL; in the data set with Rhodotorula glutinis it was 4.2 µg/mL.
